From patent US10815230B2, “Casein kinase 1 delta inhibitor” (ELECTROPHORETICS LIMITED, priority 2015, dated 2020)

What was measured:
Test in all cases: KINOMEscan binding assay
Conditions in all cases: read-out: % Ctrl @ 10000 nM
[1] = target: FLT3 (K663Q) (Homo sapiens, UniProt P36888, K663Q)
[2] = target: ABL1 (Y253F) phosphorylated (Homo sapiens, UniProt P00519, Y253F)
[3] = target: EPHA1 (Homo sapiens, UniProt P21709)
[4] = target: ALK (Homo sapiens, UniProt Q9UM73)
[5] = target: PKAC-alpha (Homo sapiens, UniProt P17612)
[6] = target: FLT3 (D835Y) (Homo sapiens, UniProt P36888, D835Y)
[7] = target: PRKD3 (Homo sapiens, UniProt O94806)
[8] = target: GCN2 (Kin.Dom.2, S808G) (Homo sapiens, UniProt Q9P2K8, S808G)
Sequence of GCN2 (Kin.Dom.2, S808G) (Q9P2K8 590-1001 S808G limits assumed): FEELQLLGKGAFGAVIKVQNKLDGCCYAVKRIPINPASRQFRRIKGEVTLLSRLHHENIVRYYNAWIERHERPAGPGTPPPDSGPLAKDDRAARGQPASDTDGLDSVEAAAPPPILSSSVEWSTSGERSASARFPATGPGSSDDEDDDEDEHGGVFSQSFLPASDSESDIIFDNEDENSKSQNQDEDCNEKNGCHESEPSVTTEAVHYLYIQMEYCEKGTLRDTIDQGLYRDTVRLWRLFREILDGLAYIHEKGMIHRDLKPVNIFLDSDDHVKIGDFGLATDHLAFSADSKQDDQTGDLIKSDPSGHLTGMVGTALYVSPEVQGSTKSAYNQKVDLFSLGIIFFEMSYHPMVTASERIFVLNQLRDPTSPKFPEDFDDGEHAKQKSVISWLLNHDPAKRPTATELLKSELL

[9] = target: PIK3CA (E542K) (Homo sapiens, UniProt P42336, E542K)
[10] = target: IGF1R (Homo sapiens, UniProt P08069)
[11] = target: EPHA6 (Homo sapiens, UniProt Q9UF33)
[12] = target: RIPK4 (Homo sapiens, UniProt P57078)
[13] = target: ABL1 (Q252H) phosphorylated (Homo sapiens, UniProt P00519, Q252H)
[14] = target: EPHA7 (Homo sapiens, UniProt Q15375)
[15] = target: AMPK-alpha2 (Homo sapiens, UniProt P54646)
[16] = target: EGFR (L747-T751del, Sins) (Homo sapiens, UniProt P00533, DEL747-750/T751S)
[17] = target: PIK3C2B (Homo sapiens, UniProt O00750)
[18] = target: ACVR2A (Homo sapiens, UniProt P27037)
Sequence of ACVR2A (P27037 20-513): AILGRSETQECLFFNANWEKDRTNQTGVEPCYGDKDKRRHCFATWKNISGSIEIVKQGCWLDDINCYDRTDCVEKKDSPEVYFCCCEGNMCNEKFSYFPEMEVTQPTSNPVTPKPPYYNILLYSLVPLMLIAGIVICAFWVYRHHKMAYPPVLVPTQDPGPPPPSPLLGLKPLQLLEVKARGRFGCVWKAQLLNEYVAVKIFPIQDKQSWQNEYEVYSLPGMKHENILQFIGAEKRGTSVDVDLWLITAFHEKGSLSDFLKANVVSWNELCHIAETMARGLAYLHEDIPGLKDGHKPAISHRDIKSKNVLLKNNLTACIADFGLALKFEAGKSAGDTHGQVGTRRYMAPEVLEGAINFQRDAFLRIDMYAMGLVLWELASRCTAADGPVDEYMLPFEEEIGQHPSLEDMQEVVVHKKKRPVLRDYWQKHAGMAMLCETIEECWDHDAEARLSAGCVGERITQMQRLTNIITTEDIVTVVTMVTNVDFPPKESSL

[19] = target: CDKL2 (Homo sapiens, UniProt Q92772)
[20] = target: EGFR (L747-E749del, A750P) (Homo sapiens, UniProt P00533, A750P/DEL747-749)
Sequence of EGFR (L747-E749del, A750P) (P00533 with tags, fused parts or gaps DEL747-749/A750P): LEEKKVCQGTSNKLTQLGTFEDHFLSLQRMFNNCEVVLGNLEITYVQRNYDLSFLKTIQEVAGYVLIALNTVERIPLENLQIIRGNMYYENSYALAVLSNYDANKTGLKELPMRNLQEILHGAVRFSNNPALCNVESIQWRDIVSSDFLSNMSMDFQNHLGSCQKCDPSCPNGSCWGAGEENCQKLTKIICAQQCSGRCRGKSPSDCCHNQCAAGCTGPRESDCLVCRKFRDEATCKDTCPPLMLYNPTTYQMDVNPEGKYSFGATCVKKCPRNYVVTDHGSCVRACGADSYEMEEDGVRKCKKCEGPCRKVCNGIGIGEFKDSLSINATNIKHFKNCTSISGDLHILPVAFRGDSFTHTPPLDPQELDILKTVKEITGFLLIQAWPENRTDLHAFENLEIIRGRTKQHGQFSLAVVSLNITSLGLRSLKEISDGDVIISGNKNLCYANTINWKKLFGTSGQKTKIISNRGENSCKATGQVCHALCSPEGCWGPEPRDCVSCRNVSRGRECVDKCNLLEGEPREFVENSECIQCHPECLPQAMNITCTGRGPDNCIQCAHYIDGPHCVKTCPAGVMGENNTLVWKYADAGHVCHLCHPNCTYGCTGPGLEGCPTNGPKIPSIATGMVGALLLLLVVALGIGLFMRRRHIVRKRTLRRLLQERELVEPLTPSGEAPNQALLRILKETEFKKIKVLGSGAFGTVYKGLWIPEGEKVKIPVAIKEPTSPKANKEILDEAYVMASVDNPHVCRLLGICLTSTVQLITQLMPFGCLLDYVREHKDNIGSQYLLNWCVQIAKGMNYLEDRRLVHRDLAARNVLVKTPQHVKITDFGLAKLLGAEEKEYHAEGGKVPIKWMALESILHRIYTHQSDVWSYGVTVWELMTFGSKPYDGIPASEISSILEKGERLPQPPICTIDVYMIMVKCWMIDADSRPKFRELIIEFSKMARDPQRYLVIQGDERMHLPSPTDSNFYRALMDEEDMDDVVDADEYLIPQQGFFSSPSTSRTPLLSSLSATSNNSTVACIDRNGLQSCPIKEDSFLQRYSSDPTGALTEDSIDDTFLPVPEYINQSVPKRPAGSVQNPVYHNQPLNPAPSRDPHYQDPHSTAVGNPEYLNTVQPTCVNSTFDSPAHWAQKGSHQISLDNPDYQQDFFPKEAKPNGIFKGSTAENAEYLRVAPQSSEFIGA

[21] = target: RSK1 Kin.Dom.1-N-terminal (Homo sapiens, UniProt Q15418)
Sequence of RSK1 Kin.Dom.1-N-terminal (Q15418 62-321 limits assumed): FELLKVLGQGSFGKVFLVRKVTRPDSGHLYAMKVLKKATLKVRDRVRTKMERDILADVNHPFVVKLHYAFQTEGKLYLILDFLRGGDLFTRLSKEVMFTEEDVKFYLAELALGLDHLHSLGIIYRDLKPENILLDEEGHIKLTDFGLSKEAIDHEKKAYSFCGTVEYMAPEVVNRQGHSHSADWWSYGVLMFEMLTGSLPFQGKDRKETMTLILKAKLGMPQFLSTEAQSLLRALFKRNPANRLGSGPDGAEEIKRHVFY

[22] = target: TXK (Homo sapiens, UniProt P42681)
[23] = target: CDC2L2 (Homo sapiens, UniProt Q9UQ88)
Sequence of CDC2L2 (Q9UQ88 whole entry): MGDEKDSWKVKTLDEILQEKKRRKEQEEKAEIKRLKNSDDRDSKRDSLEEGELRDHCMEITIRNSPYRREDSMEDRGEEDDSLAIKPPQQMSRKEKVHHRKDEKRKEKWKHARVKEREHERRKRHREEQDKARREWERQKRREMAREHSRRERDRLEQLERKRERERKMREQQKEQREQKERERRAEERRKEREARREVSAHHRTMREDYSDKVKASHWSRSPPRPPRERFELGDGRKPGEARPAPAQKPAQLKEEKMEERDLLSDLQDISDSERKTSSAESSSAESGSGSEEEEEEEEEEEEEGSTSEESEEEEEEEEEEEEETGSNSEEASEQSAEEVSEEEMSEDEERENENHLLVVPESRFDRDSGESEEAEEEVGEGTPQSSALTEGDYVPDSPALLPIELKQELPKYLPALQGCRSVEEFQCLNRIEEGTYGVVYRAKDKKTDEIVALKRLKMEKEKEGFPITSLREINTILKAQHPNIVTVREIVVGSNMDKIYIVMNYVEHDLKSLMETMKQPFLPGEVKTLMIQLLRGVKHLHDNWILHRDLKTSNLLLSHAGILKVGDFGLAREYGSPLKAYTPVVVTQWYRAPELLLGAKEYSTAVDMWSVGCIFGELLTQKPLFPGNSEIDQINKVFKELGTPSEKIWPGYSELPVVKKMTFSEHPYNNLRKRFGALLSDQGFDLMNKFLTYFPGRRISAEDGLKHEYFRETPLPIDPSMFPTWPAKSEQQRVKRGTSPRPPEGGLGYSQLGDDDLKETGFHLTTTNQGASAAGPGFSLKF

[24] = target: T1, LTK (Homo sapiens, UniProt P29376)
T1 construct: T7 phage fusion (most assays) or DNA label after HEK293 expression; purchased DiscoveRx (KINOMEscan, LeadHunter Discovery services); host or cells: T7 phage in E. coli (BL21-derived) or HEK293

[25] = target: CDC2L5 (Homo sapiens, UniProt Q14004)
[26] = target: PAK2 (Homo sapiens, UniProt Q13177)
[27] = target: STK35 (Homo sapiens, UniProt Q8TDR2)
[28] = target: T2, MAPKAPK2 (Homo sapiens, UniProt P49137)
T2 construct: T7 phage fusion (most assays) or DNA label after HEK293 expression; purchased DiscoveRx (KINOMEscan, LeadHunter Discovery services); host or cells: T7 phage in E. coli (BL21-derived) or HEK293

[29] = target: TNNI3K (Homo sapiens, UniProt Q59H18)
[30] = target: AURKB (Homo sapiens, UniProt Q96GD4)
[31] = target: PRP4 (Homo sapiens, UniProt Q13523)
[32] = target: PIP5K1C (Homo sapiens, UniProt O60331)
Sequence of PIP5K1C (O60331 whole entry): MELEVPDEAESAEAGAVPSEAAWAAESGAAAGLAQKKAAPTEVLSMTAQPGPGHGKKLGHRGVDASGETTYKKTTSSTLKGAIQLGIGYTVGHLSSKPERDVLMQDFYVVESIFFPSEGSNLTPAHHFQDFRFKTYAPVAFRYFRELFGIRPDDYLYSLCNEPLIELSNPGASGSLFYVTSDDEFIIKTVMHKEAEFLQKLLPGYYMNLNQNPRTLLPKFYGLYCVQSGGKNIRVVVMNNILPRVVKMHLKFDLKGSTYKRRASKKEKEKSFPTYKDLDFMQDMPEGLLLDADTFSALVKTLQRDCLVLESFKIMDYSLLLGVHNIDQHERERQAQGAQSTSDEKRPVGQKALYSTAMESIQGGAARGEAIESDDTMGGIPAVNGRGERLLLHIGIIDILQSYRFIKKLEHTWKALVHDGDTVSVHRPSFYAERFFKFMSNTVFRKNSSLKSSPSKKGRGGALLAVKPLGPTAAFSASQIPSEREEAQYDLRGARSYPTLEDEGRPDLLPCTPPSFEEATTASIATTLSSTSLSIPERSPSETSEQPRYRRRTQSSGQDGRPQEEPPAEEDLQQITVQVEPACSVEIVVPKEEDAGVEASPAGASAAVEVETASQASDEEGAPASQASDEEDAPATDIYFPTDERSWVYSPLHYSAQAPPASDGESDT

[33] = target: CDKL3 (Homo sapiens, UniProt Q8IVW4)
[34] = target: EGFR (L861Q) (Homo sapiens, UniProt P00533, L861Q)
Sequence of EGFR (L861Q) (P00533 25-1210 L861Q): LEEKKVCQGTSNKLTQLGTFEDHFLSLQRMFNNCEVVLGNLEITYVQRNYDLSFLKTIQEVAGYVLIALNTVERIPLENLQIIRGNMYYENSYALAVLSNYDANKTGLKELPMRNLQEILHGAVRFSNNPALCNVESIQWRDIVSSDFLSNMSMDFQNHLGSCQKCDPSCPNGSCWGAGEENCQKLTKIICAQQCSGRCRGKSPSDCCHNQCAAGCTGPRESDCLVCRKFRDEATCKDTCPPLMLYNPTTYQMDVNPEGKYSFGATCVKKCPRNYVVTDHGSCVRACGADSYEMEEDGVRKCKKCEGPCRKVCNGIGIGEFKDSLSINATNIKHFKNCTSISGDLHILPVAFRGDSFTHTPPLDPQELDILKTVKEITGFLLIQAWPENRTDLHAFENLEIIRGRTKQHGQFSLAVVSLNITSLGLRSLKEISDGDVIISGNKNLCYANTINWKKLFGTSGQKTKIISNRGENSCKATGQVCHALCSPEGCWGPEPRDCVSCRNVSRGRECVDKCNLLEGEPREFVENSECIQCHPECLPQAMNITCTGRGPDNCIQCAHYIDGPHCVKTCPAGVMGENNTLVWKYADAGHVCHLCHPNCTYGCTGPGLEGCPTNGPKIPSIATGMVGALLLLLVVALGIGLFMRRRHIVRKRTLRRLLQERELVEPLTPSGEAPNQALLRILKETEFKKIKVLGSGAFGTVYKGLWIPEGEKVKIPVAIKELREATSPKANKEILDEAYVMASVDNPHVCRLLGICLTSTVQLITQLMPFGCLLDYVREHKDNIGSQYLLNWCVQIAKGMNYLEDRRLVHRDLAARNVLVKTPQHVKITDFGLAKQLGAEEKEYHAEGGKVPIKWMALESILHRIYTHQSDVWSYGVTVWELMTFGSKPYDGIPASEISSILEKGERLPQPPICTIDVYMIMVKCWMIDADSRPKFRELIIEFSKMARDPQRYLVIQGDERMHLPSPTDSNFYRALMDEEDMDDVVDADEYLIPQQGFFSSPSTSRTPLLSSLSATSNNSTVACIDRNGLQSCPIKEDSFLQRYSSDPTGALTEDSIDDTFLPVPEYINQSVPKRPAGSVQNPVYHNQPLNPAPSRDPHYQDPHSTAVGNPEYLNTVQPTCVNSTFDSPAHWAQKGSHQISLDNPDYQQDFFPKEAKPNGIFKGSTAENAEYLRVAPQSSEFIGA

[35] = target: LOK (Homo sapiens, UniProt O94804)
[36] = target: NEK9 (Homo sapiens, UniProt Q8TD19)
[37] = target: MAK (Homo sapiens, UniProt P20794)
[38] = target: CSNK1A1 (Homo sapiens, UniProt P48729)
[39] = target: JAK2 (JH1domain-catalytic) (Homo sapiens, UniProt O60674)
[40] = target: RSK2 Kin.Dom.2-C-terminal (Homo sapiens, UniProt P51812)

| Compound | remaining binding at 10 µM [1] | remaining binding at 10 µM [2] | remaining binding at 10 µM [3] | remaining binding at 10 µM [4] | remaining binding at 10 µM [5] | remaining binding at 10 µM [6] | remaining binding at 10 µM [7] | remaining binding at 10 µM [8] | remaining binding at 10 µM [9] | remaining binding at 10 µM [10] | remaining binding at 10 µM [11] | remaining binding at 10 µM [12] | remaining binding at 10 µM [13] | remaining binding at 10 µM [14] | remaining binding at 10 µM [15] | remaining binding at 10 µM [16] | remaining binding at 10 µM [17] | remaining binding at 10 µM [18] | remaining binding at 10 µM [19] | remaining binding at 10 µM [20] | other results |
| --- | --- | --- | --- | --- | --- | --- | --- | --- | --- | --- | --- | --- | --- | --- | --- | --- | --- | --- | --- | --- | --- |
| Nc1ncc(-c2nc3ccccc3o2)c(-c2ccncc2)n1 [Comparative Compound 324, 5-(1,3-benzoxazol-2-yl)-4-(pyridine-4-yl)pyrimidin-2-amine] | 100% | 78% | 83% | 89% | 91% | 90% | 91% | 98% | 98% | 100% | 100% | 65% | 100% | 87% | 100% | 54% | 83% | 100% | 100% | 64% | remaining binding at 10 µM [21]: 86%; remaining binding at 10 µM [22]: 93%; remaining binding at 10 µM [23]: 100%; remaining binding at 10 µM [24]: 74%; remaining binding at 10 µM [25]: 93%; remaining binding at 10 µM [26]: 92%; remaining binding at 10 µM [27]: 100%; remaining binding at 10 µM [28]: 100%; remaining binding at 10 µM [29]: 100%; remaining binding at 10 µM [30]: 96%; remaining binding at 10 µM [31]: 70%; remaining binding at 10 µM [32]: 75%; remaining binding at 10 µM [33]: 100%; remaining binding at 10 µM [34]: 64%; remaining binding at 10 µM [35]: 72%; remaining binding at 10 µM [36]: 100%; remaining binding at 10 µM [37]: 86%; remaining binding at 10 µM [38]: 4.2%; remaining binding at 10 µM [39]: 98%; remaining binding at 10 µM [40]: 100% |
| CNc1c(C(N)=O)c2ccccn2c1C(=O)c1ccc(F)cc1 [Compound A, 2-methyl-amino-3-[(4-fluorophenyl)carbonyl]indolizine-1-carboxamide] | 99% | 50% | 72% | 90% | 42% | 94% | 74% | 66% | 90% | 99% | 96% | 78% | 37% | 82% | 99% | 12% | 74% | 98% | 85% | 13% | remaining binding at 10 µM [21]: 72%; remaining binding at 10 µM [22]: 45%; remaining binding at 10 µM [23]: 91%; remaining binding at 10 µM [24]: 85%; remaining binding at 10 µM [25]: 89%; remaining binding at 10 µM [26]: 79%; remaining binding at 10 µM [27]: 100%; remaining binding at 10 µM [28]: 100%; remaining binding at 10 µM [29]: 78%; remaining binding at 10 µM [30]: 86%; remaining binding at 10 µM [31]: 90%; remaining binding at 10 µM [32]: 67%; remaining binding at 10 µM [33]: 93%; remaining binding at 10 µM [34]: 29%; remaining binding at 10 µM [35]: 61%; remaining binding at 10 µM [36]: 100%; remaining binding at 10 µM [37]: 59%; remaining binding at 10 µM [38]: 0.95%; remaining binding at 10 µM [39]: 90%; remaining binding at 10 µM [40]: 43% |
